{"source": "paper PMC2697495", "about": "(The Journal of pharmacy and pharmacology, 2008)", "key": {"HLMs": {"tested_on": "HLMs", "details": "5 mM saccharolactone, ref Alkharfy & Frye 2001; cited from earlier work"}, "UGT1A4": {"target": "T1, UGT1A4 (Homo sapiens, UniProt P22310)", "T1 sequence (P22310 29-534)": "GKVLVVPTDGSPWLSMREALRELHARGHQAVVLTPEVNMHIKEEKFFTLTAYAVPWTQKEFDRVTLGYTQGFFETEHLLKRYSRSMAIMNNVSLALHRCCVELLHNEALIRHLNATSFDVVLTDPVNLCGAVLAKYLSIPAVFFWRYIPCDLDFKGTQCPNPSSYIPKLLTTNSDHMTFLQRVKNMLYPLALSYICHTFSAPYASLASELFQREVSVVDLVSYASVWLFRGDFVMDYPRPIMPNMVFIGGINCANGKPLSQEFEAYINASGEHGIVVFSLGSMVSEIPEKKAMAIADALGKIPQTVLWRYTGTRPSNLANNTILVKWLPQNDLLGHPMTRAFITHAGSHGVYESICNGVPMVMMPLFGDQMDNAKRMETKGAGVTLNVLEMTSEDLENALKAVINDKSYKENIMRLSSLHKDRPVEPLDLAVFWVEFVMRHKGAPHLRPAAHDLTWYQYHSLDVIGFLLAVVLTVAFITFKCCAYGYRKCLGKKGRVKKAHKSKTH", "assay": "Trifluoperazine glucuronidation by recombinant UGT1A4", "assay_type": "biochemical", "details": "for Trifluoperazine glucuronidation, % of the control activity (measured at 0 mM): UGT1A4, 200 μM trifluoperazine, n=3"}, "UGT2B7 [1]": {"target": "T2, UGT2B7 (Homo sapiens, UniProt P16662)", "T2 sequence (P16662 24-529)": "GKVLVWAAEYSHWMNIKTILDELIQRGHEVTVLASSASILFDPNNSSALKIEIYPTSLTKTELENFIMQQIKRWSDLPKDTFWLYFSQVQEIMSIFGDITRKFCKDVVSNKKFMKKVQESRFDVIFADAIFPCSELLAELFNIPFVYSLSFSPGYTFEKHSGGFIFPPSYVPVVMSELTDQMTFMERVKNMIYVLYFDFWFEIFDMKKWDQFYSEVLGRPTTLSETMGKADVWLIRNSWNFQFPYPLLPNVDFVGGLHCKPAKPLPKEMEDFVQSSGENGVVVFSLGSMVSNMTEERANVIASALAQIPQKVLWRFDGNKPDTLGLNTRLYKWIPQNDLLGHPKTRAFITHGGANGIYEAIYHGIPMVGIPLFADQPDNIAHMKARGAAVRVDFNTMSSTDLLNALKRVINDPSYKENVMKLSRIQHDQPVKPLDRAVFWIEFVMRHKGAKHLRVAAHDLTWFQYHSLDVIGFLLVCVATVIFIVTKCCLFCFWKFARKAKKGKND", "assay": "Estradiol-17 glucuronidation by recombinant UGT2B7", "assay_type": "biochemical", "details": "for Estradiol-17 glucuronidation, % of the control activity (measured at 0 mM): UGT2B7, 100 μM estradiol, n=3"}, "[2]": {"tested_on": "pooled human liver microsomes (pHLMs)", "assay": "e-4-hydroxy-tamoxifen glucuronidation by pHLMs", "assay_type": "biochemical", "details": "20 mM saccharolactone, pH-adjusted to 7.5"}, "[3]": {"tested_on": "pooled human liver microsomes (pHLMs)", "assay": "Estradiol-17 glucuronidation by pHLMs", "assay_type": "biochemical", "details": "pHLM, 100 μM estradiol, n=3"}, "UGT2B7 [4]": {"target": "T2, UGT2B7", "assay": "Codeine glucuronidation by recombinant UGT2B7", "assay_type": "biochemical", "details": "1 mM codeine, n=3"}, "UGT1A3": {"target": "T3, UGT1A3 (Homo sapiens, UniProt P35503)", "T3 sequence (P35503 29-534)": "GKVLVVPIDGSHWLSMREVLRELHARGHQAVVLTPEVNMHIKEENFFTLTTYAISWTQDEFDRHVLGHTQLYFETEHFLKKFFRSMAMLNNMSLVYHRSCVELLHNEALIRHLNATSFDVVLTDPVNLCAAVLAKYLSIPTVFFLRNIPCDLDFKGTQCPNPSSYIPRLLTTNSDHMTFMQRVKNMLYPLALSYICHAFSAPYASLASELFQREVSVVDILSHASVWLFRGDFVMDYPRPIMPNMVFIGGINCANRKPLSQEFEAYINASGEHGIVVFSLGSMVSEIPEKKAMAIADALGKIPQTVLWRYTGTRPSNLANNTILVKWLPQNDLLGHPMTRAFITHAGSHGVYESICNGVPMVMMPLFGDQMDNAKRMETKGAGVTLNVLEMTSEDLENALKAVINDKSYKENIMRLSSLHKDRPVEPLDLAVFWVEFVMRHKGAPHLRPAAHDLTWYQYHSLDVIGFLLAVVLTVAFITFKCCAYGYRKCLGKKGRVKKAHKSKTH", "assay": "Estradiol-17 glucuronidation by recombinant UGT1A3", "assay_type": "biochemical", "details": "100 μM estradiol, n=3"}, "[5]": {"tested_on": "pooled human liver microsomes (pHLMs)", "assay": "Salicylic acid", "assay_type": "biochemical", "details": "pHLM, 5 mM salicylic acid, phenol glucuronide, n=3"}, "[6]": {"tested_on": "endogenous β-glucuronidase, insect cell expressed UGT2B7", "details": "recombinant UGT2B7 preparation; 10 mM saccharolactone"}, "[7]": {"tested_on": "endogenous β-glucuronidase, insect cell expressed UGT1A1", "details": "recombinant UGT1A1 preparation; 10 mM saccharolactone"}}, "note": "Marks after values point to notes of the source that are not given here."}
{"smiles": "O=C(O)[C@@H](O)[C@H]1OC(=O)[C@H](O)[C@H]1O", "note": "[saccharolactone, D-saccharic acid 1,4-lactone]", "values": [{"measurement": "decrease of acetaminophen glucuronidation", "setting": "HLMs", "result": 45, "unit": "%"}, {"measurement": "Trifluoperazine glucuronidation, % of the control activity (measured at 0 mM)", "setting": "UGT1A4; 5 mM saccharolactone", "result": "90±4", "unit": "%"}, {"measurement": "Trifluoperazine glucuronidation, % of the control activity (measured at 0 mM)", "setting": "UGT1A4; 20 mM saccharolactone", "result": "82±5 ^a %"}, {"measurement": "inhibition at 20 mM", "setting": "UGT1A4; human, pH 7.5, probe trifluoperazine", "result": 18, "unit": "%"}, {"measurement": "Estradiol-17 glucuronidation, % of the control activity (measured at 0 mM)", "setting": "UGT2B7 [1]; 5 mM saccharolactone", "result": "97±2", "unit": "%"}, {"measurement": "Estradiol-17 glucuronidation, % of the control activity (measured at 0 mM)", "setting": "UGT2B7 [1]; 20 mM saccharolactone", "result": "87±7 ^a %"}, {"measurement": "reduction in estradiol-17 glucuronidation activity", "setting": "UGT2B7 [1]; recombinant UGT2B7, 20 mM saccharolactone, p<0.05", "result": 13, "unit": "%"}, {"measurement": "decrease in e-4-hydroxy-tamoxifen glucuronidation activity", "setting": "[2]", "result": 17, "unit": "%"}, {"measurement": "Estradiol-17 glucuronidation, % of the control activity (measured at 0 mM)", "setting": "[3]; 1 mM saccharolactone", "result": "71±4 ^a %"}, {"measurement": "Estradiol-17 glucuronidation, % of the control activity (measured at 0 mM)", "setting": "[3]; 2 mM saccharolactone", "result": "81±8", "unit": "%"}, {"measurement": "Estradiol-17 glucuronidation, % of the control activity (measured at 0 mM)", "setting": "[3]; 5 mM saccharolactone", "result": "78±7 ^a %"}, {"measurement": "Estradiol-17 glucuronidation, % of the control activity (measured at 0 mM)", "setting": "[3]; 10 mM saccharolactone", "result": "68±2", "unit": "%"}, {"measurement": "Estradiol-17 glucuronidation, % of the control activity (measured at 0 mM)", "setting": "[3]; 20 mM saccharolactone", "result": "66±6 ^a %"}, {"measurement": "Codeine glucuronidation, % of the control activity (measured at 0 mM)", "setting": "UGT2B7 [4]; 5 mM saccharolactone", "result": "90±7", "unit": "%"}, {"measurement": "Codeine glucuronidation, % of the control activity (measured at 0 mM)", "setting": "UGT2B7 [4]; 20 mM saccharolactone", "result": "90±3", "unit": "%"}, {"measurement": "Estradiol-17 glucuronidation, % of the control activity (measured at 0 mM)", "setting": "UGT1A3; 5 mM saccharolactone", "result": "90±14", "unit": "%"}, {"measurement": "Estradiol-17 glucuronidation, % of the control activity (measured at 0 mM)", "setting": "UGT1A3; 20 mM saccharolactone", "result": "98±10", "unit": "%"}, {"measurement": "Salicylic Acid glucuronidation, % of the control activity (measured at 0 mM)", "setting": "[5]; 1 mM saccharolactone", "result": "101±5", "unit": "%"}, {"measurement": "Salicylic Acid glucuronidation, % of the control activity (measured at 0 mM)", "setting": "[5]; 2 mM saccharolactone", "result": "111±5", "unit": "%"}, {"measurement": "Salicylic Acid glucuronidation, % of the control activity (measured at 0 mM)", "setting": "[5]; 5 mM saccharolactone", "result": "83±3 ^a %"}, {"measurement": "Salicylic Acid glucuronidation, % of the control activity (measured at 0 mM)", "setting": "[5]; 10 mM saccharolactone", "result": "90±1", "unit": "%"}, {"measurement": "Salicylic Acid glucuronidation, % of the control activity (measured at 0 mM)", "setting": "[5]; 20 mM saccharolactone", "result": "85±9 ^a %"}, {"measurement": "inhibition of estradiol glucuronide hydrolysis", "setting": "[6]", "result": "effective in the inhibition of hydrolysis"}, {"measurement": "inhibition of estradiol glucuronide hydrolysis", "setting": "[7]", "result": "effective in the inhibition of hydrolysis"}]}
